Measured values published in ChEMBL document CHEMBL1135631, “Design and evaluation of affinity labels of functionalized amino acid anticonvulsants” (J Med Chem, 2002).

Experiments:
[1] = Protective index as the ratio of TD50 value to that of ED50 value in mice.; format: functional
[2] = Protective index as the ratio of TD50 value to that of ED50 value in rat.; format: functional
[3] = Neurologic toxicity using rotarod test in rat after oral administration; format: organism-based; settings: in vivo
Mus musculus = experiment: (§1) Anticonvulsant activity using MES test in mice after intraperitoneal administration; format: functional; settings: ip
Rattus norvegicus = experiment: Anticonvulsant activity using MES test in rat after oral administration; format: functional
[4] = Neurologic toxicity using rotarod test in mice after intraperitoneal administration; format: organism-based; settings: mouse, in vivo, ip
[5] = molecular target: Metabotropic glutamate receptor 1 (Rattus norvegicus) (UniProt P23385); experiment: as §1; format: functional, organism-based; settings: Mus musculus; target entry is the homologue from another species
Chain of Metabotropic glutamate receptor 1 (Rattus norvegicus) (P23385 19-1199 limits assumed): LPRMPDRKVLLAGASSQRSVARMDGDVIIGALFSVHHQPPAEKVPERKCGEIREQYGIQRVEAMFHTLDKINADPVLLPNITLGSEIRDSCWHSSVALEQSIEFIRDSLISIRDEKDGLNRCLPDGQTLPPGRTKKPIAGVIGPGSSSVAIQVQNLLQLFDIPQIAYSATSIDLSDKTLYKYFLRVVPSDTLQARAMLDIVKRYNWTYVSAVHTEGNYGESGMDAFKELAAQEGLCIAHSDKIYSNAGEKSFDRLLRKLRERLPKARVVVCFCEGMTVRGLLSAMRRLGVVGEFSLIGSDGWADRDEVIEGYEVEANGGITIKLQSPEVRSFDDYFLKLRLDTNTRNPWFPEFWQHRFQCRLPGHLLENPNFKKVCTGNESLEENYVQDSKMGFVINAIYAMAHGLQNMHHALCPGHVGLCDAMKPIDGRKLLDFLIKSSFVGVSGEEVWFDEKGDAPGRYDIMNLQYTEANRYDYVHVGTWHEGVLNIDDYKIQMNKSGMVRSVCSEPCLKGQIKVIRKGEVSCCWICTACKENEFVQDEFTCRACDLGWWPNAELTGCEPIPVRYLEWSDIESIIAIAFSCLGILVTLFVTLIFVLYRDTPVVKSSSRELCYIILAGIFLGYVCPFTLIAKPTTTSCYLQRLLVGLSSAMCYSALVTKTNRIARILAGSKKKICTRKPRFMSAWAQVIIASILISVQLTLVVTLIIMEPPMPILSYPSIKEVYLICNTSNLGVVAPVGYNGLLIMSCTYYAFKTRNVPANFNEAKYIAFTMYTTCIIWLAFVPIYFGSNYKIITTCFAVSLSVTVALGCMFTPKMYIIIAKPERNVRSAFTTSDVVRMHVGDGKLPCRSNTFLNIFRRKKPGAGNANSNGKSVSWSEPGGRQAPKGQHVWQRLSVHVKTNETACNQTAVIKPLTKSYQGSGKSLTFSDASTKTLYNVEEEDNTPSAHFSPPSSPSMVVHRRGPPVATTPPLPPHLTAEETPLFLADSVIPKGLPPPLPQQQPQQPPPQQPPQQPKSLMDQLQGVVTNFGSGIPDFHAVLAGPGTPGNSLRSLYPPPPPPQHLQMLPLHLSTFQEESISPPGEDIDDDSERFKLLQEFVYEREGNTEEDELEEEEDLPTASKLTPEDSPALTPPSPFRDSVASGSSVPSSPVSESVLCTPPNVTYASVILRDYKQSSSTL

Row | Structure (SMILES) | PI [1] | PI [2] | TD50 [3] | ED50 (Mus musculus) | ED50 (Rattus norvegicus) | TD50 [4] | ED50 [5]
1 | COC[C@@H](NC(C)=O)C(=O)NCc1ccccc1 [LACOSAMIDE] | 6 | >128 | > 500 mg/kg |  |  |  | 
2 | CCC1(c2ccccc2)C(=O)NC(=O)NC1=O [PHENOBARBITAL] |  |  |  | 22 mg/kg | 9.1 mg/kg |  | 
3 | CCOCC(NC(C)=O)C(=O)NCc1ccccc1 (racemic) |  |  |  | 17 mg/kg |  |  | 
4 | CCCC(NC(C)=O)C(=O)NCc1ccccc1 (racemic) | 4.2 | >30 | > 30 mg/kg | 38 mg/kg | 30 mg/kg | 160 mg/kg | 
5 | COCC(NC(C)=O)C(=O)NCc1ccccc1 (racemic) | 5.2 | 101 | 37 mg/kg |  |  |  | 
6 | COC[C@H](NC(C)=O)C(=O)NCc1ccc(N=C=S)cc1 |  |  | > 30 mg/kg | > 100 mg/kg | > 180 mg/kg | > 30 mg/kg | 
7 | COC[C@@H](NC(C)=O)C(=O)NCc1cccc(N=C=S)c1 | 1.6 | >9 | > 250 mg/kg |  | 28 mg/kg | 120 mg/kg | 74 mg/kg
8 | COC[C@H](NC(=O)CBr)C(=O)NCc1ccccc1 |  |  |  | > 30 mg/kg |  | > 30 mg/kg | 
9 | COC[C@H](NC(C)=O)C(=O)NCc1cccc(N=C=S)c1 |  |  | > 150 mg/kg | > 100 mg/kg | > 150 mg/kg | > 100 mg/kg | 
10 | C=CC(=O)NC(COC)C(=O)NCc1ccccc1 (racemic) |  |  | > 30 mg/kg | > 100 mg/kg | > 30 mg/kg | > 300 mg/kg | 
11 | CC(=O)NC(CCCCN=C=S)C(=O)NCc1ccccc1 (racemic) |  |  | > 30 mg/kg | > 30 mg/kg | > 30 mg/kg | > 30 mg/kg | 
12 | COC[C@@H](NC(=O)CBr)C(=O)NCc1ccccc1 |  |  |  | > 300 mg/kg |  | > 30 mg/kg | 
13 | COC[C@@H](NC(C)=O)C(=O)NCc1ccc(N=C=S)cc1 | 2 | >59 | > 250 mg/kg | 24 mg/kg | 4.2 mg/kg | 47 mg/kg | 
14 | COC[C@H](NC(C)=O)C(=O)NCc1ccccc1 |  |  | > 30 mg/kg |  | > 30 mg/kg | > 300 mg/kg | 
15 | CCCC(CCC)C(=O)O [VALPROIC ACID] |  |  |  | 270 mg/kg |  |  | 
16 | O=C1NC(=O)C(c2ccccc2)(c2ccccc2)N1 [PHENYTOIN] |  |  |  |  | 30 mg/kg |  | 
